In ChEMBL document CHEMBL3785080, “Individual and combined antiparasitic effect of six plant metabolites against Leishmania amazonensis and Trypanosoma cruzi” (Bioorg Med Chem Lett, 2016):
pIC50: −log10 of the molar value.

Experiments:
[1] = Cytotoxicity against human THP1 cells assessed as cell viability after 72 hrs by MTT assay; format: functional; settings: THP-1, 72 h
[2] = Selectivity index, ratio of CC50 for human THP1 cells to IC50 for Leishmania amazonensis; format: functional, THP-1
[3] = system: Leishmania amazonensis; assay: Antileishmanial activity against intracellular amastigote stage of Leishmania amazonensis infected in human THP1 cells […] by microplate based assay; format: functional, organism-based
[4] = Selectivity index, ratio of CC50 for human THP1 cells to IC50 for Trypanosoma cruzi Tulahuen; format: functional, THP-1
[5] = system: Trypanosoma cruzi; assay: Antiprotozoan activity against intracellular amastigote stage of Trypanosoma cruzi Tulahuen infected in human THP1 cells assessed as reduction in parasite viability after 48 hrs by microplate based assay; format: functional, organism-based; settings: THP-1, 48 h

| Structure (SMILES) | pIC50 [3] | pIC50 [5] | CC50 [1] [µM] | Ratio CC50/IC50 [2] | Ratio CC50/IC50 [4] |
| --- | --- | --- | --- | --- | --- |
| CC1(C)C=Cc2c(ccc(C(=O)/C=C/c3ccc(O)cc3)c2O)O1 | 4.64 |  | 76.2 | 3.31 |  |
| CC(C)=CCc1c(O)c(CC=C(C)C)c2c(c1O)C(=O)C[C@@H](c1ccc(O)c(O)c1)O2 | 4.53 |  | 46.3 | 1.58 |  |
| C[C@@H]1[C@H](O)[C@@H](C)/C=C/C=C/C=C/C=C/C=C/C=C/C=C/[C@H](O[C@@H]2O[C@H](C)[C@@H](O)[C@H](N)[C@@H]2O)C[C@@H]2O[C@](O)(C[C@@H](O)C[C@@H](O)[C@H](O)CC[C@@H](O)C[C@@H](O)CC(=O)O[C@H]1C)C[C@H](O)[C@H]2C(=O)O [AMPHOTERICIN B] | 7.15 |  | 10 | 142 |  |
| O=C(Cn1ccnc1[N+](=O)[O-])NCc1ccccc1 [BENZNIDAZOLE] |  | 4.99 | > 125 |  | >12 |
| CC(C)=CCc1c(O)ccc(C(=O)/C=C/c2ccc(O)cc2)c1O [ISOBAVACHALCONE] |  |  | 36 |  |  |
| CC1(C)C=Cc2c(ccc(C(=O)/C=C/c3ccccc3)c2O)O1 [LONCHOCARPIN] | 4.66 | 4.35 | 66 | 3.03 | 1.48 |

Now from value to molecule, other results behind:

| pIC50 [3] | pIC50 [5] | Structure (SMILES) | CC50 [1] [µM] | Ratio CC50/IC50 [2] | Ratio CC50/IC50 [4] |
| --- | --- | --- | --- | --- | --- |
| 4.79 |  | COc1c(O)ccc2c1C(O)N(C)c1c-2ccc2cc3c(cc12)OCO3 (centres undefined) | > 125 | >7.69 |  |
|  | 4.40 | COc1c(C=O)c(O)cc2c1C(=O)c1ccccc1C2=O [DAMNACANTHAL] | 31.5 |  | 0.79 |
